Tests used:
[1] = test system: blackgrass; assay: Test B pre/postemergence blackgrass; format: in vivo, Alopecurus myosuroides
In short: (§1)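 Test chemicals in a non-phytotoxic solvent mixture with surfactant were sprayed preemergence onto planted seeds and postemergence onto plants 2 to 18 cm tall (1- to 4-leaf stage). After twelve to sixteen days in a greenhouse, injury was visually rated against untreated controls from 0 (no effect) to 10 (complete control).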

[2] = test system: pigweed; assay: Test B pre/postemergence pigweed; format: in vivo, Amaranthus retroflexus
In short: as §1

[3] = test system: rape; assay: Test B pre/postemergence rape; format: in vivo, Brassica napus
In short: as §1

[4] = test system: sugar beet; assay: Test B pre/postemergence sugar beet; format: in vivo, Beta vulgaris
In short: as §1

[5] = test system: wild oat; assay: Test B pre/postemergence wild oat; format: in vivo, Avena fatua
In short: as §1

[6] = test system: cocklebur; assay: Test B pre/postemergence cocklebur; format: in vivo, Xanthium strumarium
In short: as §1

[7] = test system: crabgrass; assay: Test B pre/postemergence crabgrass; format: in vivo, Digitaria sanguinalis
In short: as §1

[8] = test system: corn; assay: Test B pre/postemergence corn; format: in vivo, Zea mays
In short: as §1

[9] = test system: giant foxtail; assay: Test B pre/postemergence giant foxtail; format: in vivo, Setaria faberii
In short: as §1

[10] = test system: surinam grass; assay: Test B pre/postemergence surinam grass; format: in vivo, Brachiaria decumbens
In short: as §1

[11] = test system: purple nutsedge; assay: Test B pre/postemergence purple nutsedge; format: in vivo, Cyperus rotundus
In short: as §1

[12] = test system: morningglory; assay: Test B pre/postemergence morningglory; format: in vivo, Ipomoea hederacea
In short: as §1

[13] = test system: soybean; assay: Test B pre/postemergence soybean; format: in vivo, Glycine max
In short: as §1

[14] = test system: wheat; assay: Test B pre/postemergence wheat; format: in vivo, Triticum aestivum
In short: as §1

[15] = test system: velvetleaf; assay: Test B pre/postemergence velvetleaf; format: in vivo, Abutilon theophrasti
In short: as §1

[16] = test system: bedstraw; assay: Test B pre/postemergence bedstraw; format: in vivo, Galium aparine; conditions: for Bedstraw plant response rating: 10 is complete control
In short: as §1

[17] = Postemergence, Rate 62 g/ha, scale of 0 to 10, 0 is no effect, 10 is complete control
[18] = Postemergence, Rate 125 g/ha, scale 0 to 10, 0 is no effect, 10 is complete control
[19] = Postemergence, Rate 250 g/ha, scale 0 to 10
[20] = Postemergence, Rate 500 g/ha, scale 0 to 10, 0 is no effect, 10 is complete control
[21] = Preemergence, Rate 62 g/ha, scale of 0 to 10 where 0 is no effect and 10 is complete control
[22] = Preemergence, Rate 125 g/ha, scale 0 to 10, 0 is no effect, 10 is complete control
[23] = Preemergence, Rate 250 g/ha, scale 0 to 10, 0 is no effect, 10 is complete control
[24] = Preemergence, Rate 500 g/ha, scale of 0 to 10 where 0 is no effect and 10 is complete control

## CC(=O)C(C)n1c(=O)on(C(=O)N(c2ccc(F)cc2F)C(C)C)c1=O (stereo not shown) [Compound 517]
[1]; [17]
  Blackgrass plant response rating: 0
[1]; [18]
  Blackgrass plant response rating: 3
[1]; [19]
  Blackgrass plant response rating: 6
[1]; [20]
  Plant response rating, Blackgrass: 6
[1]; [21]
  Plant response rating, Blackgrass: 2
[1]; [22]
  Blackgrass plant response rating: 2
[1]; [23]
  Blackgrass plant response rating: 4
[1]; [24]
  Blackgrass plant response rating: 4
[2]; [17]
  Redroot pigweed plant response rating: 0
[2]; [18]
  Redroot pigweed plant response rating: 4
[2]; [20]
  Plant response rating, Redroot pigweed: 7
[2]; [21]
  Plant response rating, Redroot pigweed: 8
[2]; [22]
  Redroot pigweed plant response rating: 9
[2]; [24]
  Redroot pigweed plant response rating: 10
[3]; [17]
  Rape plant response rating: 0
[3]; [18]
  Rape plant response rating: 0
[3]; [20]
  Plant response rating, Rape: 4
[3]; [21]
  Plant response rating, Rape: 0
[3]; [22]
  Rape plant response rating: 0
[3]; [24]
  Rape plant response rating: 4
[4]; [17]
  Sugarbeets plant response rating: 0
[4]; [18]
  Sugarbeets plant response rating: 0
[4]; [20]
  Plant response rating, Sugarbeets: 3
[4]; [21]
  Plant response rating, Sugarbeets: 0
[4]; [22]
  Sugarbeets plant response rating: 0
[4]; [24]
  Sugarbeets plant response rating: 5
[5]; [17]
  Wild oats plant response rating: 0
[5]; [18]
  Wild oats plant response rating: 0
[5]; [20]
  Plant response rating, Wild oats: 3
[5]; [21]
  Plant response rating, Wild oats: 4
[5]; [22]
  Wild oats plant response rating: 4
[5]; [24]
  Wild oats plant response rating: 5
[6]; [17]
  Cocklebur plant response rating: 0
[6]; [18]
  Cocklebur plant response rating: 0
[6]; [19]
  Cocklebur plant response rating: 0
[6]; [20]
  Plant response rating, Cocklebur: 4
[6]; [21]
  Plant response rating, Cocklebur: 0
[6]; [22]
  Cocklebur plant response rating: 0
[6]; [23]
  Cocklebur plant response rating: 0
[6]; [24]
  Cocklebur plant response rating: 0
[7]; [17]
  Crabgrass plant response rating: 7
[7]; [18]
  Crabgrass plant response rating: 7
[7]; [19]
  Crabgrass plant response rating: 8
[7]; [20]
  Plant response rating, Crabgrass: 9
[7]; [21]
  Plant response rating, Crabgrass: 4
[7]; [22]
  Crabgrass plant response rating: 4
[7]; [24]
  Crabgrass plant response rating: 7
[8]; [17]
  Corn plant response rating: 0
[8]; [18]
  Corn plant response rating: 0
[8]; [19]
  Corn plant response rating: 0
[8]; [20]
  Plant response rating, Corn: 4
[8]; [21]
  Plant response rating, Corn: 0
[8]; [22]
  Corn plant response rating: 0
[8]; [24]
  Corn plant response rating: 3
[9]; [17]
  Giant foxtail plant response rating: 8
[9]; [18]
  Giant foxtail plant response rating: 8
[9]; [20]
  Plant response rating, Giant foxtail: 9
[9]; [21]
  Plant response rating, Giant foxtail: 2
[9]; [22]
  Giant foxtail plant response rating: 3
[9]; [24]
  Giant foxtail plant response rating: 10
[10]; [17]
  B. signalgrass plant response rating: 0
[10]; [18]
  B. signalgrass plant response rating: 4
[10]; Postemergence, Rate 250 g/ha, scale 0 to 10, 0 no effect, 10 complete control
  B. signalgrass plant response rating: 6
[10]; [20]
  Plant response rating, B. signalgrass: 8
[10]; [21]
  Plant response rating, B. signalgrass: 0
[10]; [22]
  B. signalgrass plant response rating: 0
[10]; [23]
  B. signalgrass plant response rating: 0
[10]; Preemergence, Rate 500 g/ha, scale 0 to 10, 0 is no effect, 10 is complete control
  B. signalgrass plant response rating: 0
[11]; [17]
  Nutsedge plant response rating: 0
[11]; [18]
  Nutsedge plant response rating: 0
[11]; [21]
  Plant response rating, Nutsedge: 0
[11]; [22]
  Nutsedge plant response rating: 0
[11]; [24]
  Nutsedge plant response rating: 0
[12]; [17]
  Morningglory plant response rating: 2
[12]; [18]
  Morningglory plant response rating: 2
[12]; [20]
  Plant response rating, Morningglory: 2
[12]; [21]
  Plant response rating, Morningglory: 0
[12]; [22]
  Morningglory plant response rating: 0
[12]; [24]
  Morningglory plant response rating: 0
[13]; [17]
  Soybean plant response rating: 0
[13]; [18]
  Soybean plant response rating: 6
[13]; [20]
  Plant response rating, Soybean: 8
[13]; [21]
  Plant response rating, Soybean: 0
[13]; [22]
  Soybean plant response rating: 0
[13]; [24]
  Soybean plant response rating: 0
[14]; [17]
  Wheat plant response rating: 0
[14]; [18]
  Wheat plant response rating: 0
[14]; [20]
  Plant response rating, Wheat: 4
[14]; [21]
  Plant response rating, Wheat: 0
[14]; [22]
  Wheat plant response rating: 0
[14]; [24]
  Wheat plant response rating: 6
[15]; [17]
  Velvetleaf plant response rating: 0
[15]; [18]
  Velvetleaf plant response rating: 0
[15]; [20]
  Plant response rating, Velvetleaf: 6
[15]; [21]
  Plant response rating, Velvetleaf: 0
[15]; [22]
  Velvetleaf plant response rating: 0
[15]; [24]
  Velvetleaf plant response rating: 3
[16]; Postemergence, Rate 62 g/ha, scale of 0 to 10, 0 is no effect
  Bedstraw plant response rating: 4
[16]; Postemergence, Rate 125 g/ha, scale 0 to 10, 0 is no effect
  Bedstraw plant response rating: 7
[16]; [21]
  Plant response rating, Bedstraw: 0
[16]; Preemergence, Rate 125 g/ha, scale 0 to 10, 0 is no effect
  Bedstraw plant response rating: 0
[16]; Preemergence, Rate 250 g/ha, scale 0 to 10, 0 is no effect
  Bedstraw plant response rating: 0
[16]; Preemergence, Rate 500 g/ha, scale 0 to 10, 0 is no effect
  Bedstraw plant response rating: 0
